The source of these data is PubChem BioAssay AID743402 (Broad Institute, 2014).

The subject of the first assay is FRT CFTR-F508del YFP iodide quenching, 24 h. Description: restoration of mutant CFTR halide transport – FRT cells, YFP quenching, cherry-pick, dose response (AID 743402).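 Also: compounds act as correctors raising surface CFTR-F508del before acute activation.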
Details: not given
As to `C[C@H]1CCC/C=C/[C@@H]2C[C@H](O)C[C@H]2[C@H](O)/C=C/C(=O)O1`, the AC35 was 15.2 µM.

`CC1=NCCc2c1[nH]c1cc(O)ccc21`: the AC35 is 13.4 µM.

Consider `CCC1(C)OC(c2ccccc2)=C/C(=C/C=C2C(=O)NC(=O)NC2=O)O1` (stereo unspecified), for which the AC35 is 11.7 µM.

Regarding `C[n+]1c2cc(N)ccc2cc2ccc(N)cc21`, the AC35 was 0.19 µM.

As to `Nc1ccc2ccc3cccc[n+]3c2c1`, the AC35 was 7.53 µM.

For `C=C1C(=O)O[C@@H]2C[C@@H](C)[C@@H]3C=CC(=O)[C@@]3(C)[C@@H](O)[C@H]12`, the AC35 was 5.32 µM.

As for `O=[N+]([O-])c1ccc(N2CCOCC2)c2c1no[n+]2[O-]`, the AC35 is 10.4 µM.

Consider `CC[n+]1c(-c2ccccc2)c2cc(N)ccc2c2ccc(N)cc21`, for which the AC35 was 13.3 µM.

Staying with this assay, now noted: channel opened with forskolin and a potentiator.
In the case of `O=[N+]([O-])c1ccc(/C=C/C2=NN(c3ccccc3)C(c3ccco3)C2)o1` (stereo unspecified), the AC35 was 2.93 µM.

As to `CN1C(=O)c2cccc3c(N)ccc(c23)C1=O`, the AC35 is 2.62 µM.

As to `COc1ccccc1Nc1nc(-c2sc(NC(=O)C(C)(C)C)nc2C)cs1`, the AC35 was 3.51 µM.

As for `CCN(CC)CCn1c2ccccc2c2nc3ccccc3nc21`, the AC35 is 17.3 µM.

Take `COC(C(=O)C(O)C(C)O)C1Cc2cc3cc(OC4CC(OC5CC(O)C(O)C(C)O5)C(O)C(C)O4)c(C)c(O)c3c(O)c2C(=O)C1OC1CC(OC2CC(OC3CC(O)C(OC)C(C)O3)C(O)C(C)O2)C(O)C(C)O1` (stereo unspecified): the AC35 was 0.583 µM.

As for `CCC1=C(CC2NCCc3ccccc32)CC2c3cc(OC)c(OC)cc3CCN2C1` (stereo unspecified), the AC35 is 15.4 µM.

On to `c1ccc2c(c1)C1=NCCN1c1ccccc1-2`, for which the AC35 was 8.91 µM.

Regarding `CCCC#Cc1ccc([C@H]2[C@@H](CO)N3CCCCN(S(=O)(=O)c4ccccc4C)C[C@H]23)cc1`, the AC35 was 19 µM.

As for `COc1ccc(S(=O)(=O)Nc2ccc3c(c2)C(=O)N([C@@H](C)CO)C[C@@H](C)[C@H](CN(C)Cc2ccc(Oc4ccccc4)cc2)O3)cc1`, the AC35 is 1.52 µM.

Take `COc1cccc(Nc2nc(-c3sc(NC(=O)c4ccccc4)nc3C)cs2)c1`: the AC35 is 4.43 µM.

For `CCN1/C(=C\c2ccc3cc(C)ccc3[n+]2CC)Sc2cc(C)c(C)cc21`, the AC35 was 1.02 µM.

As for `CC(C)Nc1nc(Nc2ccc(Cl)cc2F)c2sccc2n1`, the AC35 is 12.7 µM.

Regarding `COc1c(C=O)c2c(c(OC)c1OC)-c1ccc(OC)c(=O)cc1C(NC(C)=O)CC2` (stereo unspecified), the AC35 is 20.9 µM.

Take `COC(=O)Cn1c(=NC(=O)c2cc(-c3cccs3)nc3ccccc23)sc2cc(S(N)(=O)=O)ccc21`: the AC35 is 9.92 µM.

On to `CC(=O)Oc1ccc(N2C(=O)c3cccc4c([N+](=O)[O-])ccc(c34)C2=O)cc1`, for which the AC35 is 8.38 µM.

As to `Nc1ccc2c3c(cccc13)C(=O)N(c1ccccc1)C2=O`, the AC35 was 1.93 µM.

On to `COC(=O)c1ccccc1-c1c2ccc(=N)cc-2oc2cc(N)ccc12`, for which the AC35 was 0.0334 µM.

Regarding `O=c1ccc2[n+]([O-])c3ccc(O)cc3oc-2c1`, the AC35 was 10.9 µM.

Take `COc1ccc(S(=O)(=O)N2CC[C@@H]3[C@H](CO)N(C)c4ccc(-c5ccc(F)cc5)cc4[C@@H]32)cc1`: the AC35 is 15.3 µM.

As to `OC[C@@H]1[C@@H](c2ccccc2)C2(CN(Cc3ccccc3F)C2)N1Cc1ccccc1F`, the AC35 was 23.1 µM.

Turning to `COc1ccc(OC)c(Nc2nc(-c3sc(NC(=O)C(C)(C)C)nc3C)cs2)c1`, the AC35 was 0.908 µM.

On to `COc1cc(/C=C2\SC(=Nc3ccc(Cl)c(C(=O)O)c3)NC2=O)c(Br)c(Br)c1O`, for which the AC35 is 2.19 µM.

Turning to `COc1ccccc1N1CCN(C(=O)c2ccc(-c3ccc(Cl)cc3)o2)CC1`, the AC35 is 7.37 µM.

Regarding `NS(=O)(=O)c1ccc(NC(=O)c2cccc3cc4ccccc4nc23)cc1`, the AC35 is 20.9 µM.

With `CN(C)CCCNc1c2ccccc2nc2ccccc12`, the AC35 was 3.57 µM.

In the case of `C[C@H]1CN([C@@H](C)CO)S(=O)(=O)c2ccc(C#Cc3ccc(F)cc3)cc2O[C@H]1CN(C)C(=O)NC1CCCCC1`, the AC35 is 22.6 µM.

For `C=CCN1C(=O)/C(=C/C=C2/N(CC)c3ccc(S(=O)(=O)N(C)C)cc3N2CC)SC1=S`, the AC35 is 1.3 µM.

For the compound `Clc1ccc(Nc2ccc3ccccc3n2)cc1`, the AC35 was 4.5 µM.

For `C[n+]1c2cc(N)ccc2cc2ccc(N)cc21`, the AC35 is 0.51 µM.

On to `COc1ccc2noc3c2c1C(=O)c1ccccc1-3`, for which the AC35 is 5.51 µM.

On to `COC(=O)c1cc2c(=O)c3ccccc3oc2nc1/C=C/N(C)C`, for which the AC35 was 0.544 µM.

On to `O=C1/C(=C\c2cc(Cl)c(O)c(Cl)c2)SC(=S)N1Cc1ccccc1`, for which the AC35 is 0.214 µM.

As for `COc1ccc(-c2cnc3c(NC=O)cc(-c4ccccc4)cn23)cc1OC`, the AC35 was 10.4 µM.

For `Cc1ccc(S(=O)(=O)Nc2ccc3c(c2)CC(=O)N([C@@H](C)CO)C[C@@H](C)[C@@H](CN(C)Cc2ccc(Cl)c(Cl)c2)O3)cc1`, the AC35 was 22.6 µM.

Take `Cc1cc(Nc2ccc(Br)cc2)nc2ccccc12`: the AC35 was 8.45 µM.

For `O=C(C1CC1)N1CC(=O)N2[C@H](CO)[C@@H](c3ccc(-c4ccccc4F)cc3)[C@@H]2C1`, the AC35 is 19.7 µM.

On to `CCCC#Cc1ccc([C@H]2[C@H](CO)N3C(=O)CN(C(=O)Nc4cc(F)ccc4F)C[C@@H]23)cc1`, for which the AC35 was 23.3 µM.

Consider `O=C(Nc1cccc(F)c1)N1CCCCN2[C@@H](CO)[C@H](c3ccc(C#Cc4ccccc4)cc3)[C@@H]2C1`, for which the AC35 was 19.7 µM.

With `CCN(CC)c1ccc(/C=C(/C#N)c2nc3ccc(C)cc3[nH]2)c(OC(C)C)c1`, the AC35 was 0.796 µM.

Regarding `CC1=C/C(=C\C=C(C#N)C#N)N(C)c2ccccc21`, the AC35 is 5.2 µM.

As to `CN(C)/C=C1\C=C2C(=O)c3ccccc3N2C1=O`, the AC35 is 2.19 µM.

For `O=C1c2cccc3c(N4CCCCC4)ccc(c23)C(=O)N1c1cccc(O)c1`, the AC35 is 4.44 µM.

Turning to `Cc1cc2[nH]c3c(c[n+](C)c4ccccc34)c2cc1C`, the AC35 is 13.4 µM.

Take `CCCOc1cc(N(CC)CC)ccc1/C=C(/C#N)c1nc2ccc(C)cc2[nH]1`: the AC35 was 0.505 µM.

For `Cc1ccc(N2C(=O)c3cccc4c([N+](=O)[O-])ccc(c34)C2=O)c2cccnc12`, the AC35 is 4.81 µM.

`C[C@@H]1CN([C@@H](C)CO)C(=O)Cc2cc(NC(=O)Nc3cccc4ccccc34)ccc2O[C@@H]1CN(C)Cc1ccc(Cl)c(Cl)c1`: the AC35 is 22.4 µM.

For the compound `COc1ccc(C(=O)NCCN(C)C)c2nc3ccccc3cc12`, the AC35 is 25.7 µM.

Regarding `O=C1c2cccc(NCCCNCCO)c2C(=O)c2cccc(NCCCNCCO)c21`, the AC35 was 5.19 µM.

As to `CCOC(=O)/C(=C/C=C1\Sc2cc(C)c(C)cc2N1CC)C(C)=O`, the AC35 is 3.13 µM.

With `CC(=O)Nc1sc2c(c1-c1nc3ccccc3s1)CN(C(C)C)CC2`, the AC35 was 10.7 µM.

On to `CO[C@@]12[C@@H]3N[C@@H]3CN1C1=C(C(=O)C(N)=C(C)C1=O)[C@@H]2COC(N)=O`, for which the AC35 is 19.4 µM.

In the case of `Nc1ccc(-c2c3ccc(=O)cc-3oc3cc(O)ccc23)cc1C(=O)O`, the AC35 is 1.61 µM.

As for `COc1cccc(S(=O)(=O)N2C[C@@H]3N[C@H](C2)C3c2ccc(-c3ccccc3F)cc2)c1` (stereo partly specified), the AC35 is 24.5 µM.

As for `O=c1c2ccccc2sc2c(CO)ccc(NCCN3CCCCC3)c12`, the AC35 was 21.8 µM.

Regarding `O=C(C1CCCC1)N1CC(=O)N2[C@H](CO)[C@@H](c3ccc(-c4ccccc4F)cc3)[C@@H]2C1`, the AC35 is 22.2 µM.

Regarding `CNc1ccc2c3c(cccc13)C(=O)N(C)C2=O`, the AC35 is 0.651 µM.

On to `CN1/C(=C\C=C2/SC(=S)N(CC(=O)O)C2=O)C(C)(C)c2ccccc21`, for which the AC35 is 1.37 µM.

On to `C=CCCC(=O)Nc1nc(C)c(-c2csc(Nc3cc(OC)ccc3OC)n2)s1`, for which the AC35 was 4.51 µM.

As for `CC(C)(C)c1ccc(OCC(=O)Nc2ccc3c4c(cccc24)C(=O)NC3=O)cc1`, the AC35 was 6.68 µM.

With `COc1ccc([C@H]2CC(=O)C=C(c3ccc(OC)cc3OC)C2)cc1`, the AC35 is 25 µM.

In the case of `Nc1c2ccccc2nc2ccccc12`, the AC35 was 12.9 µM.

For the compound `O=C(Cc1ccccc1)N1CC(=O)N2[C@H](C1)[C@@H](c1ccc(C#Cc3ccccc3)cc1)[C@@H]2CO`, the AC35 was 21.3 µM.

Turning to `C#C[C@]1(O)CC[C@H]2[C@@H]3CCc4cc(OC5CCCC5)ccc4[C@H]3CC[C@@]21C`, the AC35 is 25.1 µM.

In the case of `COc1cccc2c1C(=O)c1c(O)c3c(c(O)c1C2=O)C[C@](O)(C(C)=O)C[C@H]3O[C@@H]1C[C@@H](N)[C@@H](O)[C@@H](C)O1`, the AC35 is 1.65 µM.

As to `O=C(O)c1ccccc1-c1c2cc(I)c(=O)c(I)c-2oc2c(I)c(O)c(I)cc12`, the AC35 is 1.74 µM.

Consider `O=c1ccc2c(-c3ccccc3)c3ccc(O)cc3oc-2c1`, for which the AC35 is 1.11 µM.

Take `COc1cc(/C=C2/SC(=S)N(Cc3ccccc3)C2=O)cc(Cl)c1O`: the AC35 is 3.7 µM.

For `N#CC(C#N)=C1C=C2C=C(N3CCCCCC3)CCC2CC1` (stereo unspecified), the AC35 is 0.0871 µM.

On to `C[C@H]1CN([C@@H](C)CO)S(=O)(=O)c2ccc(/C=C/c3ccccc3)cc2O[C@H]1CN(C)Cc1ccccc1`, for which the AC35 was 21.9 µM.

As for `CN1C(=CC=C2C=C(I)C(=O)C(I)=C2)C(C)(C)c2ccccc21`, the AC35 was 5.68 µM.

Consider `CC(C)N1CCc2c(sc(NC(=O)c3ccc([N+](=O)[O-])o3)c2C(N)=O)C1`, for which the AC35 was 6.42 µM.

`O=C1c2cccc3c(O)ccc(c23)C(=O)N1Cc1ccco1`: the AC35 was 2.65 µM.

Take `Cc1cc(C)c(/C=C2\C(=O)Nc3ccccc32)[nH]1`: the AC35 is 3.24 µM.

As to `CCCCN1C(=O)/C(=C/C=C2\Oc3ccccc3N2CC)SC1=S`, the AC35 was 1.64 µM.

Take `COc1cc(OC)c(-c2c3cc(O)c(=O)cc-3oc3cc(O)c(O)cc23)cc1OC`: the AC35 is 4.15 µM.

Regarding `COc1ccc(OC)c(-c2nnc3n2N=C(c2ccc(OC)c(OC)c2)CS3)c1`, the AC35 is 5.34 µM.

On to `CCN1C(=O)c2cccc3c(N)ccc(c23)C1=O`, for which the AC35 was 2.83 µM.

Consider `CNc1c2cccc(C)c2nc2c(C(=O)NCCN(C)C)cccc12`, for which the AC35 is 10.5 µM.

Take `O=[N+]([O-])c1ccc(Sc2cccc[n+]2[O-])c2nonc12`: the AC35 is 4.93 µM.

On to `CC(=O)Nc1ccc2cc3ccc(NC(C)=O)cc3nc2c1`, for which the AC35 is 3.98 µM.

On to `CCN(CC)C1=CC2=CC(=C(C#N)C#N)CCC2CC1` (stereo unspecified), for which the AC35 is 0.0855 µM.

`CN1/C(=C\C=C2/SC(=S)NC2=O)C(C)(C)c2ccccc21`: the AC35 is 2.6 µM.

For `CCCC(=O)NC1=C(Cl)C(=O)c2ccccc2C1=O`, the AC35 is 7.72 µM.
